The results in this text go back to patent US10376476B2, “Panicein compounds, compositions and uses thereof” (CENTRE NATIONAL DE LA RECHERCHE SCIENTIFIQUE, priority 2014, dated 2019).

Data set [1] deals with A375 cells. Put plainly: Screening test 2: doxorubicin cytotoxicity, neutral red cell viability. Type of data set: cell-based. The settings on record: 24 hours; for increase of cell mortality induced by dxr (dxr cytotoxicity enhancement): A375, paniceins 10 μM, dxr 1.5 μM. As for the experimental part: (§1) Cells were grown in 96 well plates in complete DMEM medium to achieve 60% to 70% confluence. Medium was then removed and replaced with 100 μL/well of complete DMEM medium containing paniceins at 10 μM (or at increasing concentrations for EC50 measurement) or DMSO as control. After 2 hours, 100 μL of complete DMEM medium containing doxorubicin was added in half wells to obtain the final concentration of 2 μM for MDA-MB-435 and MeWo, and 1.5 μM for A375. The cell viability was measured after 24 hours. Effect of compounds P2, P3, P4 and P5 on cell viability, and dose-response for compound P5 are shown for MDA-MB-435 (A), MeWo (B) and A375 (C). D. Enhancement of dxr cytotoxicity by paniceins is represented. The means (+/−sem) of at least three independent experiments are reported.
(§2) Melanoma cells MDA-MB-435, Mewo and A375 were seeded on 96-well plates and grown 48 hours in complete DMEM medium to achieve 60% to 70% confluence. Medium was then removed and replaced with 100 μL/well of complete DMEM medium containing the compounds of interest at defined concentration or DMSO as control. After 2 hours, 100 µL of complete DMEM medium containing doxorubicin was added in half wells to obtain 2 μM doxorubicin. Plates were incubated at 37° C. in a 5% CO2/95% air water-saturated atmosphere. After 24 hours, microplates were incubated 3 hours at 37° C. with 100 μL/wells neutral red (NR) solution (50 μg/mL in DMEM). After a rapid wash with PBS at 4° C., microplates were gently tapped several times on absorbent paper. Cells were solubilized with 100 μL of a solution containing 1% acetic acid, 49% H2O, 50% ethanol by vortexing 3 minutes at 700 rpm and the absorbance at 600 nm was measured. EC50 were calculated using Regressi software.

For data set [2], the system named is MDA-MB-435 cells. Described as above. Type of data set: cell-based. The settings on record: 24 hours; for increase of cell mortality induced by dxr (dxr cytotoxicity enhancement): MDA-MB-435, paniceins 10 μM, dxr 2 μM. Here is the method: as §1, §2
The subject of data set [3] is MeWo cells. The description is as above. Type of data set: cell-based. The settings on record: dxr 2 μM, 24 hours; for increase of cell mortality induced by dxr (dxr cytotoxicity enhancement): paniceins 10 μM. Here is the method: as §1, §2
Data set [4] deals with control yeasts. Put plainly: Doxorubicin efflux from yeasts (intracellular dxr fluorescence). Type of data set: cell-based, Saccharomyces cerevisiae. The conditions noted are these: 10 μM paniceins, 10 min, 5 mM 2-deoxy-D-glucose. Here is the method:
A. Compound P5 inhibits doxorubicin efflux from melanoma cells MeWo and A375. Cells were grown on cover-slips, incubated for 2 hour at 37° C. with 10 μM doxorubicin and quickly rinsed with phosphate buffer (pH 7.4). One cover-slip of each cell line was immediately fixed for doxorubicin charge control. The other cover-slips were incubated with buffer supplemented with DMSO or 10 μM of compound P5 30 min under gentle shaking and immediately fixed. Dxr intracellular fluorescence was visualized by epifluorescence and analyzed using Image J software on more than 30 cells of 3 different fields for each condition. The results were analyzed using the Student t test in which significance is attained at P<0.05 (**: P<0.005, ***: P<0.0005). B. Paniceins inhibit doxorubicin efflux from Patched-expressing yeasts. Yeasts expressing wild-type Patched (hPtc, in black), mutant Patched G509VD513Y (hPtcVXXXY, in grey), and control yeasts (in white) were incubated in buffer supplemented with 5 mM of 2-deoxy-D-glucose and 10 μM dxr for 2 hours at 4° C. After centrifugation and supernatant removing, one sample was immediately fixed for charge control and the other samples were resuspended in buffer containing 5 mM of 2-deoxy-D-glucose supplemented with DMSO or 10 μM of paniceins 10 minutes at 25° C. with gentle shaking. After centrifugation and supernatant removing, samples were fixed and deposited on coverslips for epifluorescence microscopy observation. Dxr intracellular fluorescence quantification was carried out using Image J software on more than 30 yeasts on 3 different fields for each condition. The results were analyzed using the Student t test in which significance is attained at P<0.05 (*).
On yeasts: Yeasts expressing Patched (hPtc), mutant Patched (hPtcG509VD513Y), or control yeasts were washed with cold water, resuspended at an OD600 of 10 in Hepes-NaOH buffer (pH 7.0) supplemented with 5 mM of 2-deoxy-D-glucose, and incubated with 10 μM doxorubicin for 2 hours at 4° C. in the cold room on a rotating wheel protected from light. Yeasts were centrifuged and the supernatant was removed. One sample was immediately fixed with 4% paraformaldehyde for doxorubicin loading control. […] Quantification of doxorubicin intracellular fluorescence was carried out using Image J software on more than 30 yeasts on 3 different fields for each condition. The results were analyzed using the Student t test in which significance is attained at P <0.05.
In order to see if Paniceins inhibit dxr efflux through Patched inhibition, inventors compared dxr efflux on yeasts over-expressing human Patched and control yeasts. […] Dxr fluorescence intensity of at least 30 yeasts was measured for each experiment. FIGS. 6A and 12A show the mean fluorescence intensity of 3 independent experiments. […]

As to `C/C(=C\Cc1cc(O)ccc1O)CCc1c(C)c(O)c(O)c(C=O)c1C` [P2, Panicein C], the “increase of cell mortality induced by dxr (dxr cytotoxicity enhancement)” value (“increase of cell mortality induced” below) was “no effect” in data set [1], “about 2 times” in data set [2] and “about 2 times” in data set [3]. Further, in data set [4], the “Efflux (%) of dxr” value is given as 20%.

With `C/C(=C\Cc1cc(O)ccc1O)CCc1c(C)cc(O)c(C=O)c1C` [P3, Panicein B3], the “increase of cell mortality induced” value is listed as “no effect” in data set [1], “about 2 times” in data set [2] and “about 2 times” in data set [3]. In addition, the “Efflux (%) of dxr” value in data set [4] was found to be 25%.

Turning to `Cc1cc(O)c(C=O)c(C)c1CCC1(C)C=Cc2cc(O)ccc2O1` (centres unmarked) [P4, Panicein B2], the “increase of cell mortality induced” value in data set [1] is listed as “no effect”; in data set [2], “about 2 times”; in data set [3] it was “about 2 times”. Further, the “Efflux (%) of dxr” value in data set [4] came out at 29%.

`COc1cc(C)c(CC/C(C)=C/Cc2cc(O)ccc2O)c(C)c1C` [P5, Panicein A hydroquinone]: the “increase of cell mortality induced” value in data set [1] is “about 2 times”. Also, the EC50 was determined as 22.5 µM in data set [1] (Homo sapiens, A-375, A375, dxr 1.5 μM, read-out: concentration inducing 50% of dxr cytotoxicity enhancement (EC50)); 9.3 µM in data set [2] (Homo sapiens, MDA-MB-435, dxr 2 μM, read-out: concentration inducing 50% of dxr cytotoxicity enhancement (EC50)); 5 µM in data set [3] (Homo sapiens, read-out: concentration inducing 50% of dxr cytotoxicity enhancement (EC50)). The “Efflux (%) of dxr” value in data set [4] stood at 39%.
